# Data: PubChem BioAssay (NCI)
#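 In this assay, cells in 96-well plates receive the compound at five concentrations for 48 hours. Endpoints are linearly interpolated between the surrounding concentrations. Here, GI50 denotes the concentration required for 50% inhibition of growth. Definition used: TGI = concentration required for complete inhibition of growth.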 Active and inactive are the calls of the source. No stated cut-off is given here; in the data, active means GI50 below about 0.43 µM; inactive means the rest.
# Key:
# Assay in all cases: NCI tumour cell line growth inhibition, 48 h
# [1] = test system: MDA-N
# [2] = test system: M19-MEL melanoma
# [3] = test system: DLD-1 colon
# [4] = test system: LXFL 529 NSCLC
# [5] = test system: XF 498 CNS
# [6] = test system: SNB-78 CNS
# [7] = test system: KM20L2 colon
# [8] = test system: DMS 273 small cell lung
# [9] = test system: RXF-631 renal
# [10] = test system: P388/ADR leukemia
# [11] = test system: SN12K1 renal
Compound,TGI [1],TGI [2],TGI [3],TGI [4] [µM],TGI [5] [µM],TGI [6],TGI [7] [µM],TGI [8],TGI [9] [µM],also measured
c1cc2c(c(NC3=NCCN3)c1)CCCC2,> 100 µM,–,–,–,–,–,–,–,–,–
O=C(/C=C/c1ccc(O)cc1)c1cc(Cl)ccc1O,–,> 100 µM,> 100 µM,> 100,85,> 100 µM,> 100,–,–,–
ClCCCCOC1CCCCO1 (configuration not stated),–,> 100 µM,> 100 µM,> 100,> 100,> 100 µM,> 100,> 100 µM,–,–
Nc1nc2ncn(CC(O)COC(=O)c3ccccc3)c2c(=O)[nH]1 (configuration not stated),–,> 100 µM,> 100 µM,> 100,> 100,> 100 µM,> 100,> 100 µM,> 100,–
COC(CC1(OC)OC(=O)C=C1N)OC (configuration not stated),–,> 100 µM,> 100 µM,> 100,–,> 100 µM,–,> 100 µM,–,–
N#CC1C(=O)NC(=O)C1=O (configuration not stated),–,> 100 µM,–,> 100,> 100,> 100 µM,> 100,> 100 µM,> 100,–
COc1cc2c(cc1O)C1CC(CC3CCCCN31)OC(=O)/C=C\c1ccc(O)c-2c1 (configuration not stated),> 100 µM,–,–,–,–,–,–,–,–,–
CCCCC(C(=O)CCC(=O)Nc1ccc(Cl)cc1)C(=O)C(C)C (configuration not stated),–,> 100 µM,> 100 µM,> 100,> 100,> 100 µM,> 100,> 100 µM,> 100,–
CCCCCCCCCCCC(=O)OC(COC(N)=O)COc1ccc(Cl)cc1 (configuration not stated),–,32.9 µM,> 100 µM,45.2,45.8,84.8 µM,> 100,40.9 µM,67.7,–
COC(=O)C1=C(\O)C[C@@]2(C)CC[C@@H](C(=O)OC)C2C/C=C\1C(=O)OC (some centres not stated),–,> 100 µM,> 100 µM,> 100,–,> 100 µM,> 100,> 100 µM,> 100,–
CCc1ccc([O-])c(C=NCCCN(C)CCCN=Cc2cc(C)ccc2[O-])c1.[Co+3].[N-]=[N+]=[N-],50 mg/L,> 150 mg/L,> 150 mg/L,–,–,> 150 mg/L,–,> 150 mg/L,–,GI50 [2]: > 150 mg/L; GI50 [10]: 82.9 mg/L; TGI [10]: > 150 mg/L; GI50 [3]: 61 mg/L; GI50 [8]: 34.7 mg/L; GI50 [1]: 50 mg/L; outcome [5]: inactive; GI50 [6]: > 150 mg/L; GI50 [11]: 21.7 mg/L; TGI [11]: 54.8 mg/L; outcome [7]: inactive
N#Cc1cn(-c2c3ccccc3nc3ccccc23)c(=O)[nH]c1=O,–,46.1 µM,> 100 µM,–,25.2,49.8 µM,32.2,–,–,–
CN1CCc2cc3c4cc2C1Cc1ccc(cc1)Oc1cc(ccc1O)CC1c2c(cc(O)c(c2O4)O3)CCN1C (configuration not stated),–,3.35 µM,14.8 µM,6.26,–,21.3 µM,10.3,3.84 µM,7.92,–
CC(C)COC(c1ccc2c(c1)OCO2)C(C)Br (configuration not stated),53.8 µM,–,–,–,–,–,–,–,–,–
O=c1[nH]c(SCc2ccccc2[N+](=O)[O-])nc2nc[nH]c12,> 100 µM,–,–,–,–,–,–,–,–,–
CCCCCCSc1nc(COC(=O)NC)c(COC(=O)NC)n1C,> 100 µM,–,–,–,–,–,–,–,–,–
CC1CC(c2ccc(Cl)c(Cl)c2)=Nc2ccccc2S1 (configuration not stated),–,> 100 µM,> 100 µM,> 100,> 100,> 100 µM,> 100,> 100 µM,–,–
Cc1ccc2nc3c(C)cc(=O)cc-3sc2c1,–,31 µM,> 100 µM,> 100,–,> 100 µM,> 100,> 100 µM,> 100,–

Compound,TGI [1],TGI [2],TGI [3],TGI [4] [µM],TGI [5] [µM],TGI [6],TGI [7] [µM],TGI [8],TGI [9] [µM],also measured
NCC1(N2CCOCC2)C2CCCC21CNc1ccccc1 (configuration not stated),–,> 100 µM,> 100 µM,> 100,> 100,> 100 µM,–,> 100 µM,> 100,–
CC[C@@]1(O)C(=O)NCc2c1cc1n(c2=O)Cc2cc3c(NC(C)=O)cccc3nc2-1,> 100 µM,–,–,–,–,–,–,–,–,GI50 [1]: > 100 µM
O=C1C(Br)=CC2(C=C1Br)CCNc1c(O)c3c4c(c12)=NCCC=4C=N3,0.245 µM,0.0656 µM,0.0798 µM,–,0.399,0.656 µM,0.413,0.427 µM,–,TGI [10]: 0.0155 µM; TGI [11]: 0.426 µM
COC(=O)C1(O)c2ccccc2N=C2C1CCN2C (configuration not stated),–,–,> 100 µM,> 100,> 100,> 100 µM,> 100,–,–,–
O=C1CC[C@@H](NC(=O)Cc2ccccc2)C(=O)N1,–,> 100 µM,> 100 µM,> 100,> 100,–,> 100,> 100 µM,–,–
COC(=O)NC(=O)c1cn(C2CCCCC2)c(=O)[nH]c1=O,–,> 100 µM,> 100 µM,> 100,–,> 100 µM,> 100,> 100 µM,–,–
COc1cc(/C=C/c2ccccn2)cc(OC)c1OC,> 10 µM,–,–,–,–,–,–,–,–,–
c1ccc2c(c1)N=C(c1ccc3ccccc3c1)CC(c1cccc3ccccc13)S2 (configuration not stated),–,> 100 µM,> 100 µM,> 100,> 100,–,> 100,> 100 µM,> 100,–
NC(=O)c1ncn(Cc2ccccc2)c1CNC(N)=S,–,> 100 µM,> 100 µM,> 100,> 100,> 100 µM,–,> 100 µM,> 100,–
CC1(C)CC(N2CCN(C3CC(C)(C)NC(C)(C)C3)CC2)CC(C)(C)N1,–,–,> 100 µM,> 100,> 100,> 100 µM,> 100,> 100 µM,> 100,–
Cc1ccc(NC(=O)C(=O)CC(=O)c2ccccc2)cc1C,–,> 100 µM,> 100 µM,> 100,> 100,> 100 µM,> 100,> 100 µM,–,–
Nc1ccc(C(=O)Nc2ccccc2N)cc1,> 100 µM,> 100 µM,> 100 µM,> 100,> 100,> 100 µM,–,> 100 µM,> 100,–
COC(=O)C1(C)CCCC2(C)c3cc(OC)ccc3C(=O)C(Br)C12 (configuration not stated),> 10 µM,–,–,–,–,–,–,–,–,–
O=C(/C=C/c1ccccc1)OCC1=C[C@@H](O)[C@@H]2C=CO[C@@H](OC3OC(CO)C(O)C(O)C3O)[C@H]12 (some centres not stated),> 100 µM,–,–,–,–,–,–,–,–,–
COc1cccc(/C=C\c2ccnc3ccccc23)c1,> 10 µM,–,–,–,–,–,–,–,–,–
O=C1c2ccccc2C(=O)c2c1ccc1c2N=C(c2ccc(Br)cc2)CC(c2cccc3ccccc23)N1 (configuration not stated),–,–,> 100 µM,> 100,> 100,> 100 µM,> 100,> 100 µM,> 100,–
Cc1c(O)c(Br)c(C)c(O)c1Br (tested in a mixture with another compound),3.26 µM,–,–,–,–,–,–,–,–,–
O=C(NC1C(=O)NNC1c1ccccc1Cl)c1ccccc1 (configuration not stated),–,> 100 µM,> 100 µM,> 100,> 100,–,> 100,> 100 µM,–,–
